Key:
Format in all cases: cell-based, human
SMMC-7721 cells [1] = experiment: Mitochondrial membrane potential (JC-10), SMMC-7721; conditions: SMMC-7721, 2 μM, 24 h
Experimental: (§1) The probe 5,6-dichloro-1,1′,3,3′- tetraethyl-imidacarbocyanine iodide (JC-10) was used as a measure of mitochondrial membrane potential ([Hirose et al., 1974]; [Chaudhari et al., 2008]). The effects of each of the six isolated saponins on mitochondrial membrane potential were determined using a JC-10 assay kit (×200, 10 μL/tube, five tubes), which was purchased from Beijing Solarbio Science & Technology Co., Ltd. (Beijing, China). Cells were cultured in a confocal dish with this method. After 12–24 h of inoculation and culture at 37°C, the purified saponins were added at the indicated concentrations. The cells were incubated at 37°C in a humidified atmosphere with 5% (v/v) CO2 for 24 h. The culture medium was removed, and the confocal dishes were washed twice with 1 mL PBS, followed by 0.5 mL incubation buffer containing 2.5 μL JC-10 (×200) at 37°C for 20 min in the dark. After incubation, the supernatant was removed, and the cells were washed twice with 1 mL JC-10 buffer and PBS. […] The wavelengths for excitation were 490 nm (green fluorescence) and 525 nm (red fluorescence). The wavelengths for emission were in the range of 495–565 nm (monomers for JC-10) and 550–620 nm (polymer for JC-10).

A549 cells [2] = experiment: Mitochondrial membrane potential (JC-10), A549; conditions: A549, 2 μM, 24 h
Experimental: as §1

HepG2 cells [3] = experiment: Mitochondrial membrane potential (JC-10), HepG2; conditions: HepG2, 2 μM, 24 h
Experimental: as §1

SMMC-7721 cells [4] = experiment: Cell cycle analysis (PI staining, flow cytometry), SMMC-7721; conditions: SMMC-7721, 24 h, 1 μM
Experimental: (§2) Cell cycle distribution was determined by propidium iodide (PI, BD, Pharmingen) staining ([Kong et al., 2016]; [Wei et al., 2021]). Briefly, three cancer cell lines were cultured in six-well plates at a density of 3 × 10^5 cells per well for 24 h before treatment with each of the six isolated saponins at the indicated concentrations for 24 h. The cells were collected, centrifuged, and washed twice with ice-cold PBS. Cells were fixed in 70% (v/v) ice-cold ethanol at 4°C overnight and washed again in PBS twice. The cells were incubated with 100 μL RNase A at 37°C for 30 min in the dark, after which 400 μL PI was added to the cells with RNase A in the dark at 4°C for 15 min. The cell cycle stage was analyzed by flow cytometry (BD, FACSCelesta, United States) with FLOWJO software (FlowJo, Ashland, OR, United States).

HepG2 = experiment: MTS cell viability assay, HepG2; conditions: Homo sapiens, HepG2, 48 h, read-out: IC50 (±SD) HepG2
Experimental: (§3) The effects of the extracts and isolated saponins on cell growth were evaluated by the MTS assay (3-(4,5-dimethylthiazol-2-yl)-5(3-carboxymethoxyphenyl)-2-(4-sulfopheny)-2H-tetrazolium; Promega, Madison, WI, United States) on human tumor cell lines ([Mosmann, 1983]; [Cory et al., 1991]; [Malich et al., 1997]). In a test experiment of cell inhibition, the cell inhibition effects of six crude extracts (100 μg/mL) and six isolated saponins (40 μM) were roughly measured to ascertain whether to measure the IC50 value by MTS assay.
(§4) Each well of a 96-well plate (Multiskan Fc, Therm) was seeded with 100 μL cells at a density of 3,000–5,000 cells per well, with the cell suspension containing 10% (v/v) fetal bovine serum (DMEM or RMPI1640, Biological Industries, Kibbutz Beit-Haemek, Israel). After 12–24 h of inoculation and culture at 37°C, the extracts or saponins were added at the indicated concentrations after being dissolved in dimethyl sulfoxide (DMSO, Biological Industries, Kibbutz Beit-Haemek, Israel) in a final volume of 200 μL per well, each in triplicate. The six crude extracts were added at concentrations of 100, 20, 4, 0.8, and 0.16 μg/mL; the six isolated saponins were added at concentrations of 10, 5, 2.5, 1.25, 0.625, and 0.3125 μM. After culture for 48 h at 37°C, 20 μL of MTS solution and 100 μL of DMEM were added to each well; three blank wells were set aside with 20 μL MTS solution and 100 μL DMEM. After an incubation for another 2–4 h, the absorbance at 492 nm was measured. Cisplatin and Paclitaxel (MeilunBio) were used as a positive control in each experiment. The cell growth curve was drawn with the concentration as the abscissa and the cell survival rate as the ordinate. The IC50 value of each saponin was calculated by the two-point method ([Reed and Muench, 1938]).

SMMC-7721 cells [5] = experiment: Apoptosis by annexin V-FITC/PI staining, SMMC-7721; conditions: SMMC-7721, saponins 5 μM, Figure 7
Experimental: Double staining with annexin V-fluorescein isothiocyanate (FITC) and PI was used to determine the effects of the six saponins on cell apoptosis by flow cytometry ([Homburg et al., 1995]; [Vermes et al., 1995]; [Casciola-Rosen et al., 1996]). The effects of the six isolated saponins on apoptosis were determined using an annexin V-FITC apoptosis kit (BD, Pharmingen); the chemotherapy drug doxorubicin (DOX, Beyotime Institute of Biotechnology, Shanghai, China) was used as the positive control. Cells were cultured in six-well plates at a density of 3 × 10^5 cells per well for 24 h before being treated with each of the six isolated saponins at the indicated concentrations for 24 h. The cells were collected, centrifuged, and washed twice with ice-cold phosphate-buffered saline (PBS). The cells were stained with annexin V-FITC and PI for 15 min in the dark at room temperature before analysis by flow cytometry (BD, FACSCelesta, America). Annexin V-FITC^+ and PI^+ (Q2) were considered late-stage apoptotic cells, while annexin V-FITC^+ and PI^− (Q3) cells were considered early-stage apoptotic cells. Annexin V-FITC^– and PI^+ (Q1) were necrotic or mechanically damaged cells, and annexin V-FITC^– and PI^− (Q4) cells were healthy living cells.

A549 = experiment: MTS cell viability assay, A549; conditions: Homo sapiens, A549, 48 h, read-out: IC50 (±SD) A549
Experimental: as §3, §4

SK-HEP-1 = experiment: MTS cell viability assay, SK-HEP-1; conditions: Homo sapiens, SK-HEP1, 48 h, read-out: IC50 (±SD) SK-HEP-1
Experimental: as §3, §4

SMMC-7721 = experiment: MTS cell viability assay, SMMC-7721; conditions: Homo sapiens, SMMC-7721, 48 h, read-out: IC50 (±SD) SMMC-7721
Experimental: as §3, §4

LO2 = experiment: MTS cell viability assay, normal liver cell LO2; conditions: Homo sapiens, L02, read-out: IC50 (±SD) LO2
Experimental: (§5) Three human liver cancer cell lines (SMMC-7721, HepG2, and SK-HEP-1) and the non-small-cell lung cancer (NSCLC) cell line A549 were obtained from ATCC (Manassas, VA, United States). Normal human cell lines (liver cell line LO2 and lung cell line BEAS-2B) were obtained from ATCC (Manassas, VA, United States). Cells were cultured in RMPI-1640 or DMEM medium (Biological Industries, Kibbutz Beit-Haemek, Israel) supplemented with 10% (v/v) fetal bovine serum (Biological Industries) at 37°C in a humidified atmosphere with 5% (v/v) CO2.
as §3, §4

HepG2 cells [6] = experiment: Cell cycle analysis (PI staining, flow cytometry), HepG2; conditions: HepG2, 24 h, 1 μM
Experimental: as §2

A549 cells [7] = experiment: Cell cycle analysis (PI staining, flow cytometry), A549; conditions: A549, 24 h; saponins 1 and 5 at 0.5 μM, other four at 1 μM
Experimental: as §2

BEAS-2B = experiment: MTS cell viability assay, normal lung cell BEAS-2B; conditions: Homo sapiens, BEAS-2B, read-out: IC50 (±SD) BEAS-2B
Experimental: as §5, §3, §4

SMILES | JC-10 green fluorescence (drop in mitochondrial membrane potential) (SMMC-7721 cells [1]) | JC-10 green fluorescence (drop in mitochondrial membrane potential) (A549 cells [2]) | JC-10 green fluorescence (drop in mitochondrial membrane potential) (HepG2 cells [3]) | cell cycle phase with increased proportion of cells compared to DMSO control (SMMC-7721 cells [4]) | increase of proportion of cells in the G2/M phase compared to DMSO control (SMMC-7721 cells [4]) [%] | IC50 (HepG2) [nM] | apoptosis rate (induction of apoptosis, in words) (SMMC-7721 cells [5]) | IC50 (A549) [nM] | IC50 (SK-HEP-1) [nM] | IC50 (SMMC-7721) [nM] | IC50 (LO2) [nM] | increase of proportion of cells in the G2/M phase compared to DMSO control (HepG2 cells [6]) [%] | cell cycle phase with increased proportion of cells compared to DMSO control (A549 cells [7]) | IC50 (BEAS-2B) [nM]
N#CC(C#N)=NNc1cccc(Cl)c1 [CCCP, carbonyl cyanide 3-chlorophenylhydrazone] | strong green fluorescence | strong green fluorescence | strong green fluorescence | – | – | – | – | – | – | – | – | – | – | –
CC1CCC2(OC1)OC1CC3C4CC=C5CC(OC6OC(CO)C(OC7OC(C)C(OC8OC(C)C(O)C(O)C8O)C(O)C7O)C(O)C6OC6OC(C)C(O)C(O)C6O)CCC5(C)C4CCC3(C)C1C2C [saponin 6, diosgenin-3-O-α-L-rhamnopyranosyl-(1→2)-[α-L-rhamnopyranosyl-(1→4)-α-L-rhamnopyranosyl-(1→4)]-β-D-glucopyranoside] | – | – | – | cell cycle arrest at the G2/M phase | 27.10 | 2590 ± 30 | substantial induction of apoptosis | 240 ± 10 | 1300 ± 60 | 450 ± 10 | 370 ± 10 | 25.8 | G2/M phase | 730 ± 30

From publication PMC9911168, “Cytotoxic and pro-apoptotic effects of botanical drugs derived from the indigenous cultivated medicinal plant Paris polyphylla var. yunnanensis” (Frontiers in Pharmacology, 2023)
